In BigSolDB 2.1:

O=C(O)c1cc(=O)[nH]c(=O)[nH]1
solubility (mole fraction)
Conditions	278.15 K	283.15 K	288.15 K	293.15 K	298.15 K	303.15 K	308.15 K	313.15 K	318.15 K	323.15 K
in DMF	0.00242	0.00305	0.00382	0.00473	0.00578	0.0071	0.00861	0.0108	0.0132	0.0157
in DMSO	–	–	–	0.0326	0.0394	0.0472	0.0563	0.0665	0.0781	0.0911
in THF	7.26e-05	8.12e-05	9.02e-05	0.0001	0.000112	0.000125	0.000138	0.000151	0.000167	0.000185
in acetone	9.3e-06	1.06e-05	1.22e-05	1.37e-05	1.56e-05	1.76e-05	1.95e-05	2.21e-05	2.49e-05	2.78e-05
in ethanol	1.71e-05	1.9e-05	2.09e-05	2.32e-05	2.57e-05	2.86e-05	3.17e-05	3.48e-05	3.88e-05	4.32e-05
in ethyl acetate	1.1e-06	1.2e-06	1.2e-06	1.3e-06	1.4e-06	1.5e-06	1.6e-06	1.8e-06	1.9e-06	2e-06
in isopropanol	1e-05	1.32e-05	1.72e-05	2.12e-05	2.67e-05	3.36e-05	4.18e-05	5.2e-05	6.37e-05	7.71e-05
in methanol	4.44e-05	5.24e-05	6.13e-05	7.19e-05	8.42e-05	9.82e-05	0.000115	0.000135	0.000157	0.000184
in methyl acetate	8.8e-06	9.4e-06	1.03e-05	1.15e-05	1.21e-05	1.31e-05	1.41e-05	1.53e-05	1.64e-05	1.76e-05
in n-butanol	1.47e-05	1.72e-05	2.12e-05	2.53e-05	2.97e-05	3.5e-05	4.06e-05	4.88e-05	5.67e-05	6.63e-05
in n-propanol	2.24e-05	2.57e-05	3e-05	3.42e-05	3.97e-05	4.61e-05	5.31e-05	6.09e-05	7.17e-05	8.18e-05
in water	4.57e-05	5.22e-05	5.97e-05	6.68e-05	7.56e-05	8.5e-05	9.5e-05	0.000107	0.000121	0.000136
